The first test relates to HCT116. The experiment in a line: In Vitro cytotoxicity measured by the cell colony formation assay. Type of test: cell-based, human. As to conditions: HCT116 colony formation; 72 h with drug, colonies counted after 7 days; ID50 = concentration producing 50% inhibition of colony formation; read-out: IN VITRO ID 50 HCT116. The essentials:
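Four hundred cells per dish in McCoy's 5a medium with 10% FBS were allowed to attach for 5 h at 37 °C. They were then exposed to compound for 72 h at 37 °C, added as a 10× stock made fresh in medium. After HBSS rinsing and refeeding, colonies were counted after 7 days.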
On to `CCCC(=O)N[C@@H](c1cccs1)[C@@H](O)C(=O)O[C@H]1C[C@@]2(O)[C@@H](OC(=O)c3ccccc3)[C@@H]3[C@]4(OC(C)=O)CO[C@@H]4C[C@H](O)[C@@]3(C)C(=O)[C@H](OC(=O)CCC)C(=C1C)C2(C)C` [Compound 3148], for which the IC50 was under 1 nM.

The test is the same for the next values; noted with them: Homo sapiens, HCT-116; read-out: IN VITRO ID 50 HCT116.
Regarding `CC(=O)O[C@@]12CO[C@@H]1C[C@H](O)[C@@]1(C)C(=O)[C@H](OC(=O)c3cccs3)C3=C(C)[C@@H](OC(=O)[C@H](O)[C@@H](NC(=O)OC(C)(C)C)c4ccsc4)C[C@@](O)([C@@H](OC(=O)c4ccccc4)[C@H]21)C3(C)C` [Compound 1939], the IC50 was under 1 nM.
As for `CC(=O)O[C@@]12CO[C@@H]1C[C@H](O)[C@@]1(C)C(=O)[C@H](OC(=O)C3CC3)C3=C(C)[C@@H](OC(=O)[C@H](O)[C@@H](NC(=O)OC(C)C)c4cccs4)C[C@@](O)([C@@H](OC(=O)c4ccccc4)[C@H]21)C3(C)C` [Compound 3071], the IC50 was under 1 nM.
The same measure, in the same setting: the result for `CC(=O)O[C@@]12CO[C@@H]1C[C@H](O)[C@@]1(C)C(=O)[C@H](OC(=O)c3cccs3)C3=C(C)[C@@H](OC(=O)[C@H](O)[C@@H](NC(=O)OC(C)(C)C)c4ccco4)C[C@@](O)([C@@H](OC(=O)c4ccccc4)[C@H]21)C3(C)C` [Compound 1892] reads under 1 nM; that for `CCCC(=O)O[C@H]1C(=O)[C@@]2(C)[C@H]([C@H](OC(=O)c3ccccc3)[C@]3(O)C[C@H](OC(=O)[C@H](O)[C@@H](NC(=O)OC(C)C)c4cccs4)C(C)=C1C3(C)C)[C@]1(OC(C)=O)CO[C@@H]1C[C@@H]2O` [Compound 3909], under 1 nM.
For `CCCC(=O)O[C@H]1C(=O)[C@@]2(C)[C@H]([C@H](OC(=O)c3ccccc3)[C@]3(O)C[C@H](OC(=O)[C@H](O)[C@@H](NC(=O)OCC)c4ccco4)C(C)=C1C3(C)C)[C@]1(OC(C)=O)CO[C@@H]1C[C@@H]2O` [Compound 3693], the IC50 is under 1 nM.
Turning to `CC(=O)O[C@@]12CO[C@@H]1C[C@H](O)[C@@]1(C)C(=O)[C@H](OC(=O)c3ccco3)C3=C(C)[C@@H](OC(=O)[C@H](O)[C@@H](NC(=O)OC(C)(C)C)c4ccncc4)C[C@@](O)([C@@H](OC(=O)c4ccccc4)[C@H]21)C3(C)C` [Compound 2132], the IC50 is under 1 nM.
On the same count and under the same terms, the result for `CC(=O)O[C@@]12CO[C@@H]1C[C@H](O)[C@@]1(C)C(=O)[C@H](OC(=O)C3CC3)C3=C(C)[C@@H](OC(=O)[C@H](O)[C@@H](NC(=O)OC(C)(C)C)c4ccccn4)C[C@@](O)([C@@H](OC(=O)c4ccccc4)[C@H]21)C3(C)C` [Compound 2802] reads under 1 nM; that for `CC(=O)OC12COC1CC(O)C1(C)C(=O)C(OC(=O)C(C)C)C3=C(C)C(OC(=O)C(O)C(C=C(C)C)NC(=O)OC(C)(C)C)CC(O)(C(OC(=O)c4ccccc4)C21)C3(C)C` (centres unmarked) [Compound 2226], under 1 nM.
On the same count and under the same terms, the result for `CC(=O)OC12COC1CC(O)C1(C)C(=O)C(OC(=O)C3CC3)C3=C(C)C(OC(=O)C(O)C(NC(=O)OCC(C)C)C4CC4)CC(O)(C(OC(=O)c4ccccc4)C21)C3(C)C` (centres unmarked) [Compound 5232] reads under 10 nM.
`CC(=O)O[C@@]12CO[C@@H]1C[C@H](O)[C@@]1(C)C(=O)[C@H](OC(=O)C3CC3)C3=C(C)[C@@H](OC(=O)[C@H](O)[C@@H](NC(=O)c4ccccc4)c4ccncc4)C[C@@](O)([C@@H](OC(=O)c4ccccc4)[C@H]21)C3(C)C` [Compound 2855]: the IC50 is under 1 nM.
On to `CC(=O)O[C@@]12CO[C@@H]1C[C@H](O)[C@@]1(C)C(=O)[C@H](OC(=O)C3CC3)C3=C(C)[C@@H](OC(=O)[C@H](O)[C@@H](NC(=O)OC(C)(C)C)c4ccco4)C[C@@](O)([C@@H](OC(=O)c4ccccc4)[C@H]21)C3(C)C` [Compound 0843], for which the IC50 was under 1 nM.
Still for that read-out and setting: the result for `CC(=O)O[C@@]12CO[C@@H]1C[C@H](O)[C@@]1(C)C(=O)[C@H](OC(=O)C=C(C)C)C3=C(C)[C@@H](OC(=O)[C@H](O)[C@@H](NC(=O)OC(C)(C)C)c4ccccn4)C[C@@](O)([C@@H](OC(=O)c4ccccc4)[C@H]21)C3(C)C` [Compound 2464] reads under 1 nM; that for `CC(=O)O[C@@]12CO[C@@H]1C[C@H](O)[C@@]1(C)C(=O)[C@H](OC(=O)C3CC3)C3=C(C)[C@@H](OC(=O)[C@H](O)[C@@H](NC(=O)OC(C)(C)C)c4ccncc4)C[C@@](O)([C@@H](OC(=O)c4ccccc4)[C@H]21)C3(C)C` [Compound 2813], under 1 nM; that for `CC(=O)O[C@@]12CO[C@@H]1C[C@H](O)[C@@]1(C)C(=O)[C@H](OC(=O)c3cccs3)C3=C(C)[C@@H](OC(=O)[C@H](O)[C@@H](NC(=O)OC(C)(C)C)c4cccs4)C[C@@](O)([C@@H](OC(=O)c4ccccc4)[C@H]21)C3(C)C` [Compound 1900], under 1 nM.
The same measure, in the same setting: the result for `CCC(=O)O[C@H]1C(=O)[C@@]2(C)[C@H]([C@H](OC(=O)c3ccccc3)[C@]3(O)C[C@H](OC(=O)[C@H](O)[C@@H](NC(=O)OC(C)(C)C)c4ccncc4)C(C)=C1C3(C)C)[C@]1(OC(C)=O)CO[C@@H]1C[C@@H]2O` [Compound 0521] reads under 1 nM; that for `CCCC(=O)N[C@@H](c1ccco1)[C@@H](O)C(=O)O[C@H]1C[C@@]2(O)[C@@H](OC(=O)c3ccccc3)[C@@H]3[C@]4(OC(C)=O)CO[C@@H]4C[C@H](O)[C@@]3(C)C(=O)[C@H](OC(=O)CCC)C(=C1C)C2(C)C` [Compound 3222], under 1 nM; that for `CC(=O)O[C@@]12CO[C@@H]1C[C@H](O)[C@@]1(C)C(=O)[C@H](OC(=O)C3CC3)C3=C(C)[C@@H](OC(=O)[C@H](O)[C@@H](NC(=O)OC(C)(C)C)c4ccsc4)C[C@@](O)([C@@H](OC(=O)c4ccccc4)[C@H]21)C3(C)C` [Compound 2794], under 1 nM.
On the same count and under the same terms, the result for `CC(=O)O[C@@]12CO[C@@H]1C[C@H](O)[C@@]1(C)C(=O)[C@H](OC(=O)c3ccco3)C3=C(C)[C@@H](OC(=O)[C@H](O)[C@@H](NC(=O)OC(C)(C)C)c4ccoc4)C[C@@](O)([C@@H](OC(=O)c4ccccc4)[C@H]21)C3(C)C` [Compound 2159] reads under 1 nM; that for `CCCC(=O)O[C@H]1C(=O)[C@@]2(C)[C@H]([C@H](OC(=O)c3ccccc3)[C@]3(O)C[C@H](OC(=O)[C@H](O)[C@@H](NC(=O)OC(C)(C)C)C(C)C)C(C)=C1C3(C)C)[C@]1(OC(C)=O)CO[C@@H]1C[C@@H]2O` [Compound 1031], under 10 nM; that for `CC(=O)O[C@@]12CO[C@@H]1C[C@H](O)[C@@]1(C)C(=O)[C@H](OC(=O)C3CC3)C3=C(C)[C@@H](OC(=O)[C@H](O)[C@@H](NC(=O)c4ccccc4)c4cccs4)C[C@@](O)([C@@H](OC(=O)c4ccccc4)[C@H]21)C3(C)C` [Compound 0919], under 1 nM.
As to `CCC(=O)O[C@H]1C(=O)[C@@]2(C)[C@H]([C@H](OC(=O)c3ccccc3)[C@]3(O)C[C@H](OC(=O)[C@H](O)[C@@H](NC(=O)c4ccccc4)c4cccnc4)C(C)=C1C3(C)C)[C@]1(OC(C)=O)CO[C@@H]1C[C@@H]2O` [Compound 0647], the IC50 worked out at 12 nM.
Still for that read-out and setting: the result for `CC(=O)O[C@@]12CO[C@@H]1C[C@H](O)[C@@]1(C)C(=O)[C@H](OC(=O)c3cccs3)C3=C(C)[C@@H](OC(=O)[C@H](O)[C@@H](NC(=O)OC(C)(C)C)C(C)C)C[C@@](O)([C@@H](OC(=O)c4ccccc4)[C@H]21)C3(C)C` [Compound 1964] reads under 10 nM.

The test system of a further test is HCT116 carcinoma.
Test: not given
Conditions: number of 5 mice; i.v. qd x 1 at MTD, Day 60; doses as in E3. Here is the method: Antitumor compounds were formulated for an i.v. dosing regime and were prepared in the following vehicle: 5% ethanol, 5% Cremophor and 90% isotonic saline.
The antitumor compounds were given intravenously in a single maximum tolerated dose (MTD) appropriate for each compound. […] The MTDs for the antitumor compounds were calculated from earlier single dose data for mice receiving i.v. administration of these compounds. All vehicle control animals in the split dosing regimes were dosed twice intravenously with half of the total volume being given separated by one hour. The study was terminated on Day 60.
A complete response is obtained if the tumor is not palpable at the end of the study.
Consider `CCC(=O)OC1C(=O)C2(C)C(O)CC3OCC3(OC(C)=O)C2C(OC(=O)c2ccccc2)C2(O)CC(OC(=O)C(O)C(NC(=O)c3ccccc3)c3cccs3)C(C)=C1C2(C)C` (centres unmarked) [Compound 0687], for which the Survivors was determined as 5.

The next test has as its system MX-1 carcinoma.
Test: not given
Conditions: number of 6 mice; i.v. qd x 1 at MTD, Day 60; doses as in E17. Here is the method: Thirteen antitumor compounds were formulated for an i.v. dosing regime (single i.v. bolus, qd x 1 schedule) prepared in the following vehicle: 5% ethanol, 5% Cremophor and 90% isotonic saline.
The antitumor compounds were given intravenously in a single maximum tolerated dose (MTD) appropriate for each compound. […] The MTDs for the antitumor compounds were calculated from earlier single dose data for mice receiving i.v. administration of these compounds. All vehicle control animals in the split dosing regimes were dosed twice intravenously with half the total volume being given separated by one hour. The study was terminated on Day 60.
A complete response is obtained if the tumor is not palpable at the end of the study. […]
The compound `CCC(=O)OC1C(=O)C2(C)C(O)CC3OCC3(OC(C)=O)C2C(OC(=O)c2ccccc2)C2(O)CC(OC(=O)C(O)C(NC(=O)c3ccccc3)c3cccs3)C(C)=C1C2(C)C` (centres unmarked) [Compound 0687] displayed a Survivors of 5.

The test system of the next test is A2780 ovarian carcinoma.
Test: not given
Conditions: number of mice; i.v. qd x 1 at estimated MTD (Taxol 24 mg/kg, Taxotere 70 mg/kg, 0983 72.6 mg/kg); 5 mice/group (Taxotere 6); Day 60. Here is the method:
Dosing was initiated on Day 1. […] Taxotere was given i.v. on a qd x 1 schedule at a dose of 70 mg/kg. […] The study was terminated on Day 60. Treatment groups are detailed in Table 7.
On to `CCC(=O)OC1C(=O)C2(C)C(O)CC3OCC3(OC(C)=O)C2C(OC(=O)c2ccccc2)C2(O)CC(OC(=O)C(O)C(NC(=O)c3ccccc3)c3cccs3)C(C)=C1C2(C)C` (centres unmarked) [Compound 0687], for which the Survivors is 0.

The record behind these values is patent publication EP1285920A1, “C10 Ester sustituted taxanes as antitumor agents” (Florida State University Research Foundation, Inc., priority 2001, dated 2003).
